Laboratory results from publication PMC9369610, “Pro-Apoptotic and Pro-Autophagic Properties of Cardenolides from Aerial Parts of Pergularia tomentosa” (Molecules, 2022).

How the values were obtained:
[1] = system: XBP1 in HepG2 cells; experiment: XBP1 splicing detection; assay type: cell-based, human; conditions: HepG2, 1 μM, 4 h
Experimental: To detect the unspliced and the spliced form of XBP1, we followed the protocol described by Martucciello et al.. After treatments for 4 h with 1 μM of each compound, or DMSO, or thapsigargin (1 μM), RNA was isolated and retro-transcripted. PCR analyses were performed with the following primers: 5′- […]-3′; 5′-[…]-3′. After 35 cycles (heating at 94 °C for 30 s, annealing at 58 °C for 45 s, and polymerisation at 72 °C for 60 s), amplified cDNA was visualised on 2.5% agarose gel, stained with an ethidium bromide solution.

[2] = system: HepG2, Caco-2, MRC5 and HUVEC cells; experiment: MTT assay, comparison of cytotoxic effects at 1 μM on four cell types; assay type: cell-based, human; conditions: 24 h, Caco-2, HepG2, MRC5, HUVEC
Source text: We focused attention on 12β,6′-dihydroxycalotropin (1), 16α-hydroxycalotropin (2), 12β-hydroxycalactin (3), calotropin (4), and calactin (5), among those described by Hosseini et al., and tested their cytotoxic activity by a 3-(4,5-dime-thylthiazol-2-yl)-2,5-diphenylte-tetrazolium bromide (MTT) assay on two cancer cell lines (HepG2 and Caco-2), not previously employed, on an immortalised nontumoral cell line (MRC5) and normal primary cells (HUVEC).
Figure 2 Comparison of cytotoxic effects of P. tomentosa compounds on cancer cell lines (Caco-2 and HepG2), on an immortalised cell line (MRC5) and normal cells (HUVEC). Cells were treated for 24 h with 1 μM of each compound. Residual viability was measured by the MTT assay. Values are the means ± standard error (SE) of three independent experiments performed in triplicate. Statistical analysis was performed using the Student’s t-test. * p < 0.05 and ** p < 0.01 vs. cells treated with the vehicle (DMSO).
(§1) The human liver hepatocellular carcinoma cell line, HepG2, and the human adenocarcinoma of colon cell line, Caco-2, were cultured in Eagle’s Minimum Essential medium supplemented with 1% (v/v) non-essential amino acids, 0.2 mM L-glutamine, 50 units/mL penicillin, 50 μg/mL streptomycin and 10% (v/v) or 20% (v/v) fetal bovine serum (Sigma Aldrich, Milan, Italy) for HepG2 or Caco-2, respectively. The human embryonal lung fibroblast cell line, MRC5, was cultured in Dulbecco’s Modified Eagle medium (Sigma Aldrich, Milan, Italy) supplemented with 10% (v/v) fetal bovine serum, 0.2 mM L-glutamine, 50 units/mL penicillin and 50 μg/mL streptomycin. HUVEC cells were cultured in endothelial growth medium-2, supplemented with fetal bovine serum (2%), VEGF (0.1%), rH FGF-B (0.4%), rH EGF (0.1%), GA-1000 (0.1%), hydrocortisone (0.04%), R3-IGF-1 (0.1%), heparin (0.1%) and ascorbic acid (0.1%). Cells were maintained at 37 °C in a 5% CO2, 95% air-humidified atmosphere and passaged twice a week. Cell lines were obtained from Interlab Cell Line Collection, Istituto Nazionale per la Ricerca sul Cancro, Genoa, Italy. HUVEC were obtained from Lonza (Milan, Italy).
(§2) An MTT assay was used to analyse cell viability. Cells were seeded in 96 wells at the density of 2 × 10^4/cm^2 and, after 24 h, they were treated with P. tomentosa compounds or with the vehicle (DMSO). After a further 24 h of treatment, 0.5 mg/mL of MTT was added to the cell medium and incubated for 1.5 h at 37 °C. The resulting formazan crystals were dissolved in 100 μL of DMSO and absorbances were measured at 595 nm and 655 nm. The background signals at 655 nm were subtracted from 595 nm signals, and data were expressed as a percent of cell viability. The concentration of each compound that is required for 50% inhibition in vitro (IC50) was calculated as described in Husseini et al.. IC50 values were obtained for Caco-2, HepG2 and MRC5 cells by performing MTT assays with concentrations ranging from 0.01 μg/mL to 5 μg/mL.

[3] = system: MRC5 cells; experiment: MTT cell viability assay, IC50 in MRC5 cells; assay type: cell-based; conditions: Homo sapiens, 24 h, SE less than 10% of value
Experimental: as §1, §2

[4] = system: HepG2 cells; experiment: Scratch-wound-healing assay; assay type: cell-based, human; conditions: HepG2, 1 μM, 24, 48 and 72 h
Experimental: Cells were seeded at a density of 5 × 10^4 cells/well in 24-well plates and allowed to grow for 72 h, reaching confluence. Mitomycin C (10 μg/mL) was added to inhibit proliferation, and then a sterile 2–10 μL pipette tip was used to perform a vertical scratch in the monolayer of each well. Detached cells were removed by washing with phosphate-buffered saline. Then, 300 μL of fresh medium containing P. tomentosa compounds (1 μM) or vehicle was added to each well and incubated for 72 h. Images of migrating cells were taken at 0, 24, 48 and 72 h, by using an Olympus CKX41 fluorescent microscope (Olympus Italia srl, Segrate, Italy) and elaborated by the ImageJ software. For each scratch, wound width was calculated as the average distance between the edges in four different sites. Then, reductions in wound wights at 24, 48 and 72 h were expressed as % of the width at time zero.

[5] = system: HepG2 cells; experiment: BrdU incorporation (proliferation) assay; assay type: cell-based, human; conditions: HepG2, 1 μM, 24 h
Experimental: Cell proliferation was analysed by a BrdU (Roche Diagnostics SpA, Monza, Italy) incorporation assay, as previously described. Briefly, HepG2 cells, seeded at adensity of 3 × 10^3/cm^2 on round glass cover slips, were treated for 24 h with P. tomentosa compounds at 1 μM. Then, BrdU was added to cell medium (final concentration, 100 μM) for 1 h. Cells were fixed (in 3% paraformaldehyde, 10 min), permeabilised (in 0.2% Triton X-100, 5 min) and treated with HCl 1.5 N (5 min). Finally, cover slips were incubated with a monoclonal antibody against BrdU (Sigma-Aldrich, Milan, Italy), 1:100, and with a TRITC-conjugated secondary antibody, 1:100. After staining with Hoechst, cover slips were mounted with Mowiol (Sigma, Milan, Italy). […] Images were acquired with Axiocam MRc5 and processed with ImageJ Launcher. The number of cells into S-phase was expressed as the ratio between the number of cells incorporating BrdU and the total number of cells.

[6] = system: HepG2 cells; experiment: TUNEL assay; assay type: cell-based, human; conditions: HepG2, 1 μM, 24 h
Experimental: Microscopic evaluation of apoptosis was performed by a TUNEL assay, using a commercial kit (Fragment End Labelling (FragEL™), […]) DNA Fragmentation Detection Kit, Sigma-Aldrich, Milan, Italy) according to the manufacturer-provided protocol, with some modifications. Briefly, cells were seeded on glass cover slips placed in 24-well plates at a density of 3.5 × 10^3/cm^2 and, after 48 h, they were treated with 1 μΜ of each compound for a further 24 h. Cells were fixed in 3% paraformaldehyde for 10 min, permeabilised in 0.2% Triton X-100 for 5 min and treated with HCl 1.5 N for 8 min. Finally, cover slips were equilibrated in equilibration buffer (10 min) and incubated with label mix containing the TdT enzyme for 1 h at 37 °C, then mounted with mounting media. Microscope observations were performed by the AxioSkop 40 fluorescent microscope. Images were acquired with Axiocam MRc5 (Carl Zeiss MicroImaging, Inc., Jena, Germany).

[7] = system: Caco-2 cells; experiment: MTT cell viability assay, IC50 in Caco-2 cells; assay type: cell-based; conditions: Homo sapiens, 24 h, SE less than 10% of value
Experimental: as §1, §2

[8] = system: HepG2 cells; experiment: MTT cell viability assay, IC50 in HepG2 cells; assay type: cell-based; conditions: Homo sapiens, 24 h, SE less than 10% of value
Experimental: as §1, §2

[9] = system: caspase-3 in HepG2 cells; experiment: Caspase-3 colorimetric activity assay; assay type: cell-based, human; conditions: HepG2, 1 μM, 24 h
Experimental: To evaluate apoptosis, a caspase-3 colorimetric assay was performed. Briefly, HepG2 cell lines were seeded in plates of 60 mm diameter at a density of 3.5 × 10^4/cm^2 and, after 24 h, treated with P. tomentosa compounds (1 μM each) for 24 h. Then, cells were harvested in phosphate-buffered saline, collected by centrifugation and lysed in a buffer containing 50 mM HEPES, 0.1% CHAPS, 10 mM dithiothreitol, 100 mM NaCl, 1 mM EDTA and 10% sucrose. Proteins (30 μg) were incubated for 2 h at 37 °C in a reaction mixture containing the caspase-3 substrate (acetyl-Asp-Glu-Val-Asp, labelled with p-nitroanilide) (Sigma-aldrich, Milan, Italy) at a concentration of 0.2 mM. Finally, the release of free p-nitroanilide was monitored spectrophotometrically at 405 nm. Enzyme activity was expressed as percentage of absorption of treated cells versus vehicle-treated cells.

[10] = system: HepG2 cells; experiment: Transwell migration assay; assay type: cell-based, human; conditions: HepG2, 1 μM, 18 h
Experimental: Transwell filters (coated with collagen) in serum-free media containing 0.1% of BSA, with a PET membrane with 8 μm pores (BD Biosciences, Milan, Italy), were rehydrated for 2 h at 37 °C. HepG2 were seeded in the upper chambers at a density of 75 × 10^3 cells in MEM with 0.1% BSA and treated with or without 1 µM of Pergularia compounds. MEM−0.1%BSA, supplemented with 10% FBS, was added to the lower chamber as chemoattractant. Control wells without 10% FBS were included to assess random migration. After incubation at 37 °C in 5% CO2 for 18 h, the migrated cells were fixed with 4% paraformaldehyde for 5 min, permeabilised with methanol for 20 min and stained with crystal violet 0.5% for 15 min at room temperature. The cells on the lower side of the filter were allowed to dry before counting. Eight separate bright-field images were randomly acquired of each filter using an Olympus CKX41 Image Analyzer. The cells in each image were counted and analysed compared to control-transfected cells.

[11] = system: caspase-3 in HepG2 cells; experiment: Western blot of cleaved caspase-3; assay type: cell-based, human; conditions: HepG2, 2 μM, 7 h, Western blot densitometry
Experimental: To analyse the protein levels of p53, caspase-3, GRP78, LC3 and p62, HepG2 cells were treated with P. tomentosa compounds (1 or 2 μM) or with DMSO for the indicated times; then, Western blot analyses were performed. Briefly, cells were lysed in RIPA buffer (20 mM Tris-HCl, pH 7.5, 150 mM NaCl, 1 mM EDTA, 1 mM dithiothreitol, 0.1% sodium dodecyl sulphate, 1% triton X-100, 1 mM orthovanadate, and a cocktail of inhibitors (Sigma-Aldrich, Milan, Italy)). After separation on a sodium dodecyl sulphate-polyacrylamide gel electrophoresis and transfer to a poly-vinylidene fluoride membrane (Euroclone, Milan, Italy), the following primary antibodies were used, at a dilution of 1:1000 in tris-buffered saline containing 1% non-fat dry milk, overnight at 4 °C: mouse anti-p53 antibody, mouse anti-MAP LC3 β antibody, mouse anti-p62 antibody (DBA, Milan, Italy), mouse anti-GRP78 antibody, and mouse anti-caspase 3 antibody (Thermo Fisher Scientific, Milan, Italy). For normalisation, a mouse anti-GAPDH antibody (Microtech, Naples, Italy) was used.

Row | Structure (SMILES) | XBP1 splicing [1] | relative cytotoxicity (residual viability, MTT) [2] | IC50 [3] | effect on wound closure [4] | effect on BrdU incorporation / cell cycle progression [5] | apoptotic nuclei (TUNEL) [6] | IC50 [7] | IC50 [8] | caspase-3 activity [9] | effect on transwell migration [10] | reduction of number of cells that incorporated BrdU compared to the vehicle [5] | cleaved caspase-3 (caspase-3 activation) [11]
1 | C/C=C(/C)C(=O)O[C@H]1C(C)=C2[C@H]([C@@H]1OC(=O)CCCCCCC)[C@@](C)(OC(C)=O)C[C@H](OC(=O)CCC)[C@@]1(O)[C@H]2OC(=O)[C@@]1(C)O [thapsigargin] | appearance of the spliced form | – | – | – | – | – | – | – | – | – | – | –
2 | C[C@@H]1C[C@H](O)[C@]2(O)O[C@@H]3C[C@@]4(C=O)C(CCC5C4CC[C@]4(C)C(C6=CC(=O)OC6)[C@H](O)C[C@]54O)C[C@H]3O[C@@H]2O1 (stereo partly drawn) [Compound 2, 16α-hydroxycalotropin] | – | intermediate cytotoxicity | 2320 nM | interfered with the wound closure at 72 h only | significantly affected cell cycle progression | less evident | 2430 nM | 2340 nM | – | – | – | –
3 | C[C@@H]1C[C@@H](O)[C@]2(O)O[C@@H]3C[C@@]4(C=O)C(CCC5C4C[C@@H](O)[C@]4(C)C(C6=CC(=O)OC6)CC[C@]54O)C[C@H]3O[C@@H]2O1 (stereo partly drawn) [Compound 3, 12β-hydroxycalactin] | – | less cytotoxic | 5980 nM | had an effect at 48 h only | slightly (but not significantly) reduced BrdU incorporation | undetectable | 4510 nM | 6280 nM | did not seem to affect enzyme activity | reduce migration | – | –
4 | C[C@@]12C(C3=CC(=O)OC3)CC[C@]1(O)C1CCC3C[C@H]4O[C@@H]5O[C@H](CO)C[C@H](O)[C@]5(O)O[C@@H]4C[C@]3(C=O)C1C[C@H]2O (stereo partly drawn) [Compound 1, 12β,6′-dihydroxycalotropin] | – | intermediate cytotoxicity | 2210 nM | interfered with the wound closure after 48 and 72 h | slightly (but not significantly) reduced BrdU incorporation | less evident | 1540 nM | 2610 nM | – | reduce migration | – | –
5 | C[C@@H]1C[C@H](O)[C@]2(O)O[C@@H]3C[C@@]4(C=O)[C@@H](CC[C@@H]5[C@@H]4CC[C@]4(C)[C@@H](C6=CC(=O)OC6)CC[C@]54O)C[C@H]3O[C@@H]2O1 [Compound 4, calotropin] | – | most cytotoxic | 424 nM | not affect cell migration, at any time | significantly affected cell cycle progression | occurrence of apoptotic nuclei | 767 nM | 830 nM | – | – | about 40% | most active
